This is an account of results in US20250059159A1, “PLPRO INHIBITORS” (SHANGHAI SYNERGY PHARMACEUTICAL SCIENCES CO., LTD., priority 2021, published 2025).

pIC50: −log10 of the molar value.

This assay concerns the target SARS-CoV-2 PLpro (Severe acute respiratory syndrome coronavirus 2 (2019-nCoV) (SARS-CoV-2), UniProt P0DTD1). The assay can be described thus: PLpro enzymatic inhibition assay (IC50 value determination). The format is biochemical. The conditions noted are these: 60 min preincubation for covalent inhibitors, 10 min for non-covalent, read-out: Inhibition of SARS-CoV-2 PLpro IC50 range.
In the case of `C#CCNC(=O)CNC(=O)CN(C1CCN(C(CO)c2cccc3ccccc23)CC1)S(C)(=O)=O` (stereo not drawn) [Compound 143, 2-(N-(1-(2-hydroxy-1-(naphthalen-1-yl)ethyl)piperidin-4-yl)methylsulfonamido)-N-(2-oxo-2-(prop-2-yn-1-ylamino)ethyl)acetamide], the pIC50 was 5.00 to 6.00.
On to `C#CCNC(=O)CNC(=O)CN(C1CCN(C(CF)c2cccc3ccccc23)CC1)S(C)(=O)=O` (stereo not drawn) [Compound 144, 2-(N-(1-(2-fluoro-1-(naphthalen-1-yl)ethyl)piperidin-4-yl)methylsulfonamido)-N-(2-oxo-2-(prop-2-yn-1-ylamino)ethyl)acetamide], for which the pIC50 is 5.00 to 6.00.
For `COC(=O)/C=C/CNC(=O)CNC(=O)C[C@H](NCc1ccc2c(c1)OCO2)C1CCN(C(C)c2cccc3ccccc23)CC1` (stereo partly drawn) [Compound 29, methyl (E)-4-(2-((3S)-3-((benzo[d][1,3]dioxol-5-ylmethyl)amino)-3-(1-(1-(naphthalen-1-yl)ethyl)piperidin-4-yl)propanamido)acetamido)but-2-enoate], the negative logarithm of the IC50 (pIC50) is 6.00 to 7.00.
As for `COC(=O)/C=C/CNC(=O)CNC(=O)CN(C(=O)C1CCCC1)C1CCN([C@H](C)c2cccc3ccccc23)CC1` [Compound 10, methyl (R,E)-4-(2-(2-(N-(1-(1-(naphthalen-1-yl)ethyl)piperidin-4-yl)cyclopentanecarboxamido)acetamido)acetamido)but-2-enoate], the figure is 6.00 to 7.00; as for `C#CCNC(=O)CNC(=O)CNC1CCN([C@H](C)c2cccc3ccccc23)CC1` [Compound 12, (R)-2-((1-(1-(naphthalen-1-yl)ethyl)piperidin-4-yl)amino)-N-(2-oxo-2-(prop-2-yn-1-ylamino)ethyl)acetamide], 6.00 to 7.00; as for `C[C@H](c1cccc2ccccc12)N1CCC(N(CC(=O)NCC(=O)NC/C=C/S(C)(=O)=O)S(C)(=O)=O)CC1` [Compound 59, (R,E)-N-(3-(methylsulfonyl)allyl)-2-(2-(N-(1-(1-(naphthalen-1-yl)ethyl)piperidin-4-yl)methylsulfonamido)acetamido)acetamide], 6.00 to 7.00.
In the case of `C#CCNC(=O)CNC(=O)CN(C1CCN([C@@H](C)c2cccc3ccccc23)CC1)S(=O)(=O)C1CC1` [Compound 90, (S)-2-(N-(1-(1-(naphthalen-1-yl)ethyl)piperidin-4-yl)cyclopropanesulfonamido)-N-(2-oxo-2-(prop-2-yn-1-ylamino)ethyl)acetamide], the pIC50 was over 7.00.
The same measure for `CCCC(=O)N(CC(=O)NCC(=O)NC/C=C/C(=O)OC)C1CCN([C@H](C)c2cccc3ccccc23)CC1` [Compound 18, methyl (R,E)-4-(2-(2-(N-(1-(1-(naphthalen-1-yl)ethyl)piperidin-4-yl)butyramido)acetamido)acetamido)but-2-enoate]: over 7.00; for `C#CCNC(=O)CNC(=O)CN(C1CCN(C(C)c2c(F)ccc3ccccc23)CC1)S(C)(=O)=O` (stereo not drawn) [Compound 83, 2-(N-(1-(1-(2-fluoronaphthalen-1-yl)ethyl)piperidin-4-yl)methylsulfonamido)-N-(2-oxo-2-(prop-2-yn-1-ylamino)ethyl)acetamide]: 6.00 to 7.00.
As for `C#CCNC(=O)CNC(=O)CN(C1CCN(C(C)c2cc(Cl)ccc2Cl)CC1)S(C)(=O)=O` (stereo not drawn) [Compound 140, 2-(N-(1-(1-(2,5-dichlorophenyl)ethyl)piperidin-4-yl)methylsulfonamido)-N-(2-oxo-2-(prop-2-yn-1-ylamino)ethyl)acetamide], the figure is 6.00 to 7.00; as for `C#CCNC(=O)CNC(=O)CN(C1CCN(C(C)c2cccc(Cl)c2Cl)CC1)S(C)(=O)=O` (stereo not drawn) [Compound 94, 2-(N-(1-(1-(2,3-dichlorophenyl)ethyl)piperidin-4-yl)methylsulfonamido)-N-(2-oxo-2-(prop-2-yn-1-ylamino)ethyl)acetamide], 6.00 to 7.00.
Regarding `C#CCNC(=O)CNC(=O)CN(C1CCN(C(C)c2ccccc2-c2ccccc2)CC1)S(C)(=O)=O` (stereo not drawn) [Compound 113, 2-(N-(1-(1-([1,1′-biphenyl]-2-yl)ethyl)piperidin-4-yl)methylsulfonamido)-N-(2-oxo-2-(prop-2-yn-1-ylamino)ethyl)acetamide], the pIC50 was 6.00 to 7.00.
As for `C#CCNC(=O)CNC(=O)[C@@H](C)N(C1CCN([C@H](C)c2cccc3ccccc23)CC1)S(C)(=O)=O` [Compound 152, (R)-2-(N-(1-((R)-1-(naphthalen-1-yl)ethyl)piperidin-4-yl)methylsulfonamido)-N-(2-oxo-2-(prop-2-yn-1-ylamino)ethyl)propanamide], the figure is over 7.00; as for `C#CCNC(=O)CNC(=O)CN(C1CCN(C(c2cccc3ccccc23)C(F)(F)F)CC1)S(C)(=O)=O` (stereo not drawn) [Compound 100, N-(2-oxo-2-(prop-2-yn-1-ylamino)ethyl)-2-(N-(1-(2,2,2-trifluoro-1-(naphthalen-1-yl)ethyl)piperidin-4-yl)methylsulfonamido)acetamide], 6.00 to 7.00.
As for `C#CCNC(=O)CNC(=O)CN(C1CCN([C@H](C)c2cccc3ccccc23)CC1F)S(C)(=O)=O` (stereo partly drawn) [Compound 93, 2-(N-(3-fluoro-1-((R)-1-(naphthalen-1-yl)ethyl)piperidin-4-yl)methylsulfonamido)-N-(2-oxo-2-(prop-2-yn-1-ylamino)ethyl)acetamide], the figure is 6.00 to 7.00; as for `COC(=O)/C=C/CNC(=O)CNC(=O)CN(C)C1CCN([C@H](C)c2cccc3ccccc23)CC1` [Compound 25, methyl (R,E)-4-(2-(2-(methyl(1-(1-(naphthalen-1-yl)ethyl)piperidin-4-yl)amino)acetamido)acetamido)but-2-enoate], over 7.00; as for `C#CCNC(=O)CNC(=O)CN(C1CCN(C(C)c2cccc3ccccc23)CC1)S(=O)(=O)N1CCCC1` (stereo not drawn) [Compound 98, 2-(N-(1-(1-(naphthalen-1-yl)ethyl)piperidin-4-yl)pyrrolidine-1-sulfonamido)-N-(2-oxo-2-(prop-2-yn-1-ylamino)ethyl)acetamide], over 7.00.
The same measure for `C#CCNC(=O)CCC(=O)CN(C1CCN([C@H](C)c2cccc3ccccc23)CC1)S(C)(=O)=O` [Compound 81, (R)-5-(N-(1-(1-(naphthalen-1-yl)ethyl)piperidin-4-yl)methylsulfonamido)-4-oxo-N-(prop-2-yn-1-yl)pentanamide]: 5.00 to 6.00.
On to `C=CC(=O)NNC(=O)CN(C1CCN(C(C)c2cccc3ccccc23)CC1)S(C)(=O)=O` (stereo not drawn) [Compound 168, N-(2-(2-acryloylhydrazineyl)-2-oxoethyl)-N-(1-(1-(naphthalen-1-yl)ethyl)piperidin-4-yl)methanesulfonamide], for which the pIC50 is 5.00 to 6.00.
As for `C#CCNC(=O)CNC(=O)CN(C1CCN(C(C)c2cccc(C)c2C)CC1)S(C)(=O)=O` (stereo not drawn) [Compound 99, 2-(N-(1-(1-(2,3-dimethylphenyl)ethyl)piperidin-4-yl)methylsulfonamido)-N-(2-oxo-2-(prop-2-yn-1-ylamino)ethyl)acetamide], the figure is over 7.00; as for `C#CCNC(=S)CNC(=O)CN(C1CCN(C(C)c2cccc3ccccc23)CC1)S(C)(=O)=O` (stereo not drawn) [Compound 164, 2-(N-(1-(1-(naphthalen-1-yl)ethyl)piperidin-4-yl)methylsulfonamido)-N-(2-(prop-2-yn-1-ylamino)-2-thioxoethyl)acetamide], over 7.00.
For `C#CCNC(=O)CNC(=O)CN(C1CCN(C(C)c2ccc3ccccc3c2)CC1)S(C)(=O)=O` (stereo not drawn) [Compound 110, 2-(N-(1-(1-(naphthalen-2-yl)ethyl)piperidin-4-yl)methylsulfonamido)-N-(2-oxo-2-(prop-2-yn-1-ylamino)ethyl)acetamide], the pIC50 was over 7.00.
As for `C#CCNC(=O)CNC(=O)CN(C1CCN(C(C)c2ccc(Cl)cc2Cl)CC1)S(C)(=O)=O` (stereo not drawn) [Compound 120, 2-(N-(1-(1-(2,4-dichlorophenyl)ethyl)piperidin-4-yl)methylsulfonamido)-N-(2-oxo-2-(prop-2-yn-1-ylamino)ethyl)acetamide], the figure is 6.00 to 7.00; as for `CC(c1cccc2ccccc12)N1CCC(N(CC(=O)NCC(=O)NCC#N)S(C)(=O)=O)CC1` (stereo not drawn) [Compound 114, N-(cyanomethyl)-2-(2-(N-(1-(1-(naphthalen-1-yl)ethyl)piperidin-4-yl)methylsulfonamido)acetamido)acetamide], 5.00 to 6.00.
As for `[2H]C([2H])(C#C)NC(=O)CNC(=O)CN(C1CCN(C(C)c2cccc3ccccc23)CC1)S(C)(=O)=O` (stereo not drawn) [Compound 153, 2-(N-(1-(1-(naphthalen-1-yl)ethyl)piperidin-4-yl)methylsulfonamido)-N-(2-oxo-2-((prop-2-yn-1-yl-1,l-d2)amino)ethyl)acetamide], the figure is over 7.00; as for `C#CCNC(=O)CNC(=O)CN(C1CCN(C(C)c2ccc(OC)c3ccccc23)CC1)S(C)(=O)=O` (stereo not drawn) [Compound 96, 2-(N-(1-(1-(4-methoxynaphthalen-1-yl)ethyl)piperidin-4-yl)methylsulfonamido)-N-(2-oxo-2-(prop-2-yn-1-ylamino)ethyl)acetamide], over 7.00.
Regarding `C#CCNC(=O)CCNC(=O)CN(C1CCN([C@H](C)c2cccc3ccccc23)CC1)S(C)(=O)=O` [Compound 57, (R)-3-(2-(N-(1-(1-(naphthalen-1-yl)ethyl)piperidin-4-yl)methylsulfonamido)acetamido)-N-(prop-2-yn-1-yl)propanamide], the pIC50 was 6.00 to 7.00.
Take `COC(=O)/C=C/CNC(=O)CNC(=O)[C@H](CN)NC1CCN([C@H](C)c2cccc3ccccc23)CC1` [Compound 26, methyl (E)-4-(2-((S)-3-amino-2-((1-((R)-1-(naphthalen-1-yl)ethyl)piperidin-4-yl)amino)propanamido)acetamido)but-2-enoate]: the pIC50 was 6.00 to 7.00.
The same measure for `C#Cc1nnc(NC(=O)CN(C2CCN(C(C)c3cccc4ccccc34)CC2)S(C)(=O)=O)o1` (stereo not drawn) [Compound 170, N-(5-ethynyl-1,3,4-oxadiazol-2-yl)-2-(N-(1-(1-(naphthalen-1-yl)ethyl)piperidin-4-yl)methylsulfonamido)acetamide]: 5.00 to 6.00; for `C#CCNC(=O)CNC(=O)CN(C1CCN(C(C)c2ccccc2OC)CC1)S(C)(=O)=O` (stereo not drawn) [Compound 130, 2-(N-(1-(1-(2-methoxyphenyl)ethyl)piperidin-4-yl)methylsulfonamido)-N-(2-oxo-2-(prop-2-yn-1-ylamino)ethyl)acetamide]: over 7.00.

In general, pIC50 refers to the IC50 on a negative log10 scale, so that one unit is a factor of ten.
